# Inconclusive results and toxic doses are left out.
# Tested on: P388 leukemia ip, CD2F1 mice, survival T/C
# Experiment: NCI In Vivo Anticancer Drug Screen. Data for tumor model P388 Leukemia (intraperitoneal) in CD2F1 (CDF1) mice
# Details: endpoint: median survival time, higher = longer survival
# Summary of the method: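 Mice carrying the transplanted tumor received test compound or vehicle. Survival was recorded in each group, and the value is the treated-group measurement divided by that of the vehicle-treated control group.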
# [1] = dose: 50.0 mg/kg/injection, schedule: Q01DX005 (ip), vehicle: saline with Tween-80
# [2] = dose: 100.0 mg/kg/injection, schedule: Q01DX005 (ip), vehicle: saline with Tween-80
# [3] = dose: 50.0 mg/kg/injection, schedule: Q01DX009 (ip), vehicle: saline
# [4] = dose: 100.0 mg/kg/injection, schedule: Q01DX009 (ip), vehicle: saline
# [5] = dose: 50.0 mg/kg/injection, schedule: Q01DX005 (ip), vehicle: Klucel (hydroxypropylcellulose) (HPC)
# [6] = dose: 100.0 mg/kg/injection, schedule: Q01DX005 (ip), vehicle: Klucel (hydroxypropylcellulose) (HPC)
# [7] = dose: 200.0 mg/kg/injection, schedule: Q01DX005 (ip), vehicle: Klucel (hydroxypropylcellulose) (HPC)
# [8] = dose: 50.0 mg/kg/injection, schedule: Q01DX009 (ip), vehicle: Klucel (hydroxypropylcellulose) (HPC)
# [9] = dose: 100.0 mg/kg/injection, schedule: Q01DX009 (ip), vehicle: Klucel (hydroxypropylcellulose) (HPC)
# [10] = dose: 200.0 mg/kg/injection, schedule: Q01DX009 (ip), vehicle: Klucel (hydroxypropylcellulose) (HPC)
# [11] = dose: 25.0 mg/kg/injection, schedule: Q01DX009 (ip), vehicle: Klucel (hydroxypropylcellulose) (HPC)
smiles,measurement,setting,value
COC1OC2COc3ccccc3OC2C(NC#N)C1OC (centres undefined),T/C,"dose: 60.0 mg/kg/injection, schedule: Q01DX005 (ip), vehicle: Klucel (hydroxypropylcellulose) (HPC)",112 % of control
same,T/C,"dose: 120.0 mg/kg/injection, schedule: Q01DX005 (ip), vehicle: Klucel (hydroxypropylcellulose) (HPC)",108 % of control
same,T/C,"dose: 240.0 mg/kg/injection, schedule: Q01DX005 (ip), vehicle: Klucel (hydroxypropylcellulose) (HPC)",107 % of control
O=c1c2ccccc2c2nc3ccccc3nc2c2ccccc12,T/C,"dose: 25.0 mg/kg/injection, schedule: Q01DX005 (ip), vehicle: saline with Tween-80",91 % of control
same,T/C,[1],97 % of control
same,T/C,[2],96 % of control
[Co].[NH-]CC[NH-].[NH-]CC[NH-].[NH-]CC[NH-],T/C,"dose: 25.0 mg/kg/injection, schedule: Q01DX009 (ip), vehicle: saline",100 % of control
same,T/C,[3],111 % of control
same,T/C,"dose: 50.0 mg/kg/injection, schedule: Q04DX002 (ip), vehicle: saline with Tween-80",100 % of control
same,T/C,[4],105 % of control
same,T/C,"dose: 100.0 mg/kg/injection, schedule: Q04DX002 (ip), vehicle: saline with Tween-80",102 % of control
same,T/C,"dose: 200.0 mg/kg/injection, schedule: Q04DX002 (ip), vehicle: saline with Tween-80",106 % of control
O=C(O)C(=O)O.O=C(O)C(=O)O.[Co+2].[NH-]CCC[NH-],T/C,"dose: 12.5 mg/kg/injection, schedule: Q04DX002 (ip), vehicle: saline",99 % of control
NC(=S)N/N=C/Cn1ccc(=O)[nH]c1=O,T/C,[5],100 % of control
same,T/C,[6],98 % of control
same,T/C,[7],99 % of control
CC12CC3CC(C)(C1)CC(C(Cl)C(=O)NC(C)(C)C)(C3)C2 (centres undefined),T/C,[8],97 % of control
same,T/C,[9],100 % of control
same,T/C,[10],93 % of control
CN(C)c1ccc(/C=C/c2nc3ccccc3s2)cc1,T/C,[11],108 % of control
same,T/C,[8],99 % of control
same,T/C,[9],99 % of control
same,T/C,[10],98 % of control
CCCCOC(=O)C1C(C(=O)OCCCC)C2(Cl)C(Cl)=C(Cl)C1(Cl)C2(Cl)Cl (centres undefined),T/C,[9],97 % of control
same,T/C,[10],104 % of control
same,T/C,"dose: 400.0 mg/kg/injection, schedule: Q01DX009 (ip), vehicle: Klucel (hydroxypropylcellulose) (HPC)",111 % of control
O=c1[nH]c(=O)c2nc(-c3ccc(Cl)c(Cl)c3)cnc2[nH]1,T/C,"dose: 100.0 mg/kg/injection, schedule: Q01DX001 (ip), vehicle: saline",100 % of control
same,T/C,"dose: 200.0 mg/kg/injection, schedule: Q01DX001 (ip), vehicle: saline",116 % of control
same,T/C,"dose: 400.0 mg/kg/injection, schedule: Q01DX001 (ip), vehicle: saline",91 % of control
COC1C(OC(N)=O)C(O)C(Oc2ccc3c(O)c(NC(=O)c4ccc(O)c(CC=C(C)C)c4)c(=O)oc3c2C)OC1(C)C (centres undefined),T/C,[11],100 % of control
same,T/C,[5],109 % of control
same,T/C,[8],95 % of control
same,T/C,[6],106 % of control
same,T/C,[9],100 % of control
same,T/C,[7],109 % of control
same,T/C,[10],103 % of control
CSCC1(CCO)OCCO1,T/C,"dose: 25.0 mg/kg/injection, schedule: Q01DX009 (ip), vehicle: saline with Tween-80",100 % of control
same,T/C,"dose: 50.0 mg/kg/injection, schedule: Q01DX009 (ip), vehicle: saline with Tween-80",94 % of control
same,T/C,"dose: 100.0 mg/kg/injection, schedule: Q01DX009 (ip), vehicle: saline with Tween-80",94 % of control
COCC(Cl)/C(N)=N\S(=O)(=O)c1c(C)cc(Cl)cc1Cl (centres undefined),T/C,"dose: 60.0 mg/kg/injection, schedule: Q01DX005 (ip), vehicle: saline with Tween-80",101 % of control
same,T/C,"dose: 120.0 mg/kg/injection, schedule: Q01DX005 (ip), vehicle: saline with Tween-80",100 % of control
same,T/C,"dose: 240.0 mg/kg/injection, schedule: Q01DX005 (ip), vehicle: saline with Tween-80",96 % of control
CC[As](CC)SC1OC(C2COC(C)(C)O2)C2OC(C)(C)OC12 (centres undefined),T/C,"dose: 12.5 mg/kg/injection, schedule: Q01DX009 (ip), vehicle: distilled water + Tween-80",120 % of control
same,T/C,"dose: 25.0 mg/kg/injection, schedule: Q01DX009 (ip), vehicle: distilled water + Tween-80",123 % of control
same,T/C,"dose: 50.0 mg/kg/injection, schedule: Q01DX009 (ip), vehicle: distilled water + Tween-80",120 % of control
CC1CCC(C(C)C)C(NC(=O)c2ccncc2)C1 (centres undefined),T/C,[5],100 % of control
same,T/C,[6],101 % of control
same,T/C,[7],105 % of control
OCc1c(-c2ccccc2)c(-c2ccccc2)c2n1CCC2,T/C,[1],103 % of control
same,T/C,[2],92 % of control
same,T/C,"dose: 200.0 mg/kg/injection, schedule: Q01DX005 (ip), vehicle: saline with Tween-80",99 % of control
Fc1ccc(N=Cc2ccc(C=Nc3ccc(F)cc3)cc2)cc1,T/C,[3],100 % of control
same,T/C,[4],100 % of control
same,T/C,"dose: 200.0 mg/kg/injection, schedule: Q01DX009 (ip), vehicle: saline",97 % of control
Cc1ccc(C)c(C(O)C2CC2)c1 (centres undefined),T/C,"dose: 100.0 mg/kg/injection, schedule: Q04DX003 (ip), vehicle: saline with Tween-80",100 % of control
same,T/C,"dose: 200.0 mg/kg/injection, schedule: Q04DX003 (ip), vehicle: saline with Tween-80",104 % of control
COC(=O)C(Cc1c[nH]c2ccccc12)NC(=O)c1ccccc1NC(=O)OCc1ccccc1 (centres undefined),T/C,"dose: 17.5 mg/kg/injection, schedule: Q01DX005 (ip), vehicle: Klucel (hydroxypropylcellulose) (HPC)",103 % of control
same,T/C,"dose: 35.0 mg/kg/injection, schedule: Q01DX005 (ip), vehicle: Klucel (hydroxypropylcellulose) (HPC)",104 % of control
same,T/C,"dose: 70.0 mg/kg/injection, schedule: Q01DX005 (ip), vehicle: Klucel (hydroxypropylcellulose) (HPC)",97 % of control
Cc1cc(OC(N)=S)cc(C)c1Cl,T/C,[8],101 % of control
same,T/C,[9],100 % of control
same,T/C,[10],101 % of control
CC(C)=CCCC(C)(OC1OC(COC2OC(CO)C(O)C2O)C(O)C(O)C1O)C1CCC2(C)C1C(O)CC1C3(C)CCC(OC4OC(CO)C(O)C(O)C4OC4OC(CO)C(O)C(O)C4O)C(C)(C)C3CCC12C (centres undefined),T/C,"dose: 2.0 mg/kg/injection, schedule: Q01DX009 (ip), vehicle: Klucel (hydroxypropylcellulose) (HPC)",88 % of control
same,T/C,"dose: 4.0 mg/kg/injection, schedule: Q01DX009 (ip), vehicle: Klucel (hydroxypropylcellulose) (HPC)",95 % of control
same,T/C,"dose: 8.0 mg/kg/injection, schedule: Q01DX009 (ip), vehicle: Klucel (hydroxypropylcellulose) (HPC)",104 % of control
same,T/C,"dose: 16.0 mg/kg/injection, schedule: Q01DX009 (ip), vehicle: Klucel (hydroxypropylcellulose) (HPC)",114 % of control
same,T/C,"dose: 32.0 mg/kg/injection, schedule: Q01DX009 (ip), vehicle: Klucel (hydroxypropylcellulose) (HPC)",98 % of control
CCC1(O)C(=O)OCc2c1cc1n(c2=O)Cc2cc3cc4c(cc3nc2-1)OCO4 (centres undefined),T/C,"dose: 1.0 mg/kg/injection, schedule: Q01DX005 (ip), vehicle: saline with Tween-80",177 % of control
same,T/C,"dose: 2.0 mg/kg/injection, schedule: Q01DX005 (ip), vehicle: saline with Tween-80",86 % of control
CCc1cc(C(=O)OC)c(=O)n2c1-c1[nH]c3ccccc3c1CC2,T/C,[5],94 % of control
same,T/C,[6],95 % of control
same,T/C,[7],89 % of control
[Cl][Cu][Cl].c1ccc2[nH]cnc2c1.c1ccc2[nH]cnc2c1,T/C,"dose: 6.25 mg/kg/injection, schedule: Q01DX009 (ip), vehicle: Klucel (hydroxypropylcellulose) (HPC)",113 % of control
same,T/C,"dose: 12.5 mg/kg/injection, schedule: Q01DX009 (ip), vehicle: Klucel (hydroxypropylcellulose) (HPC)",104 % of control
same,T/C,[11],100 % of control
O=[N+]([O-])c1cccc2nc(-c3ccccn3)n(CCc3ccncc3)c12,T/C,"dose: 50.0 mg/kg/injection, schedule: Q01DX001 (ip), vehicle: Klucel (hydroxypropylcellulose) (HPC)",104 % of control
same,T/C,"dose: 100.0 mg/kg/injection, schedule: Q01DX001 (ip), vehicle: Klucel (hydroxypropylcellulose) (HPC)",104 % of control
same,T/C,"dose: 200.0 mg/kg/injection, schedule: Q01DX001 (ip), vehicle: Klucel (hydroxypropylcellulose) (HPC)",101 % of control
Cc1cn(C)c2c1-c1oncc1CC2,T/C,"dose: 100.0 mg/kg/injection, schedule: Q04DX003 (ip), vehicle: Klucel (hydroxypropylcellulose) (HPC)",100 % of control
same,T/C,"dose: 200.0 mg/kg/injection, schedule: Q04DX003 (ip), vehicle: Klucel (hydroxypropylcellulose) (HPC)",100 % of control
same,T/C,"dose: 400.0 mg/kg/injection, schedule: Q04DX003 (ip), vehicle: Klucel (hydroxypropylcellulose) (HPC)",100 % of control
CC1(C)N=C(Oc2cc(Cl)cc(Cl)c2)NC(=S)N1,T/C,"dose: 60.0 mg/kg/injection, schedule: Q01DX005 (ip), vehicle: DMSO",109 % of control
same,T/C,"dose: 120.0 mg/kg/injection, schedule: Q01DX005 (ip), vehicle: DMSO",100 % of control
same,T/C,"dose: 240.0 mg/kg/injection, schedule: Q01DX005 (ip), vehicle: DMSO",97 % of control

# From PubChem BioAssay AID330 (DTP/NCI, 2004)
